Measurements: BigSolDB 2.1

CC1(C)COP(=O)(Oc2cc(OP3(=O)OCC(C)(C)CO3)cc(OP3(=O)OCC(C)(C)CO3)c2)OC1
solubility (mole fraction)
Conditions | in 1,4-dioxane | in THF | in acetone | in acetonitrile | in chloroform | in dichloromethane | in ethanol | in methanol
288.15 K | 8.73e-05 | 0.000132 | 0.000453 | 0.000941 | 0.00551 | 0.00512 | 7.83e-05 | 0.000423
293.15 K | 9.57e-05 | 0.000138 | 0.000502 | 0.00109 | 0.00634 | 0.00589 | 9.43e-05 | 0.000496
298.15 K | 0.00011 | 0.000144 | 0.000568 | 0.00136 | 0.00713 | 0.00673 | 0.000111 | 0.000568
303.15 K | 0.000127 | 0.000149 | 0.000638 | 0.00158 | 0.00802 | 0.00779 | 0.00013 | 0.000648
308.15 K | 0.000139 | 0.000154 | 0.000718 | 0.00195 | 0.00921 | 0.00891 | 0.000156 | 0.000748
313.15 K | 0.000153 | 0.000158 | 0.000805 | 0.00238 | 0.0106 | – | 0.000192 | 0.000874
318.15 K | 0.000171 | 0.000162 | 0.000924 | 0.00289 | 0.0121 | – | 0.000225 | 0.000975
